Test results from patent US7790700B2, “Derivatives of partially desulphated glycosaminoglycans endowed with antiangiogenic activity and devoid of anticoagulating effect” (Sigma-Tau Industrie Farmaceutiche Riunite S.p.A., priority 2000, dated 2010).

Legend:
CAM = CAM test in the presence of corticosteroids, Lapierre et al. Table III; cited from earlier work
[1] = tested on: chick embryo chorioallantoic membrane; test: Angiostatic activity on CAM model (gelatin sponge); assay type: in vivo
Procedure: For the study of angiogenesis the model used was the chick embryo chorioallantoic membrane model (Ribatti e al. Int. J. Dev. Biol., 40, 1189 (1996)).
300 embryonated hens' eggs were incubated at 37° C. in constant humidity conditions. On the 3rd day of incubation, after aspirating 2-3 ml of albumen from the acute pole of the egg so as to detach the CAM from the shell, a window was cut with scissors in the shell. The vessels underlying the CAM were thus exposed. The window was closed with a transparent glass panel and the eggs were put back into the incubator. On the 8th day of incubation, in sterile conditions, the CAMs were treated according to the protocol described below using a technique developed recently (Ribatti et al. J. Vasc. Res. 34, 455 (1997)), which involves the use of sterile gelatin sponges measuring 1 mm^2 in size. […] The sponges were first rested on the surface of the CAM, and then 3 μl of solution of the test substance were pipetted onto the surface of the sponge. The CAMs were examined daily using a Zeiss SR stereomicroscope equipped with a photographic device. The experiments were discontinued on the 12th day of incubation, when an overall assessment of the angiogenic activity of the molecules was carried out, expressed as percentage inhibition in relation to the number of experiments initiated and completed (Table 9). In addition, for compound ST1514, assayed at the concentration of 100 μg/embryo, a macroscopic quantitative evaluation of the angiostatic activity was also carried out according to the technique proposed by Brooks et al. (Science, 264, 569, (1994)), counting the number of vessels surrounding the sponge. The number of vessels was compared with that of the control sponges treated with PBS (vehicle of the test compound) and with FGF-2 (positive control).

[2] = tested on: L6-WT1 cells (rat myoblasts transfected with FGFR-1); test: Inhibition of DNA synthesis in L6 cells transfected with FGFR-1; assay type: cell-based; conditions: test compound 100 μ/ml
Procedure: L6-WT1 cells (rat myoblasts transfected with FGFR-1) were seeded at a density of 25,000 cells/cm^2 in 48-well plates in DMEM+ 10% FCS. After 24 hours the cells were washed with serum-free medium and incubated for 48 hours with DMEM+ 0.5% FCS. The cells were then incubated for 16 hours with FGF-2 at the concentrations of 15 and 30 ng/ml in the presence or absence of the test compounds (all at 100 μ/ml). At the end of the incubation 3H-thymidine (0.25 μCi/well) was added without changing the medium. After 6 hours, precipitable TCA was measured. Each experimental point is the mean of 3 determinations.

BAEC cells = test: Test of cell proliferation in BAEC; assay type: cell-based, bovine; conditions: 30 ng/ml FGF-2, 3 days, crystal-violet
Procedure: BAEC cells at the 7th pass were seeded at a density of 2,500 cells/cm^2 in 96-well in EBM medium without bovine brain extract and hEGF. To this medium were added 30 ng/ml of FGF-2 and each of the test compounds at 5 concentrations ranging from 10 ng/ml to 100 μg/ml. After 3 days the cells were fixed and stained with crystal-violet and the optical density was determined by means of an ELISA microplate reader. Each experimental point was done in quadruplicate and the ID50 was calculated.

[3] = background table, structure/antimetastatic activity; cited from earlier work
Endothelial Cell = test: Endothelial cell proliferation (Table 11); assay type: cell-based; conditions: Table 11, endothelial cell proliferation
foetal BAEC GM 7373 = test: Test of cell proliferation in foetal BAEC GM 7373; assay type: cell-based, bovine; conditions: GM7373, 10 ng/ml FGF-2, cell count
Procedure: GM7373 cells were seeded at a density of 70,000 cells/cm^2 in 96-well plates in MEM+ 10% FCS medium. After 24 hours, the cells were washed with serum-free medium and treated with 10 ng/ml of FGF-2 in medium containing 0.4% FCS. After 8 hours, the test compounds were added to the medium at 5 concentrations ranging from 10 ng/ml to 100 μg/ml. After a further 16 hours, the cells were trypsinised and counted in a Burker chamber. The ID50 was calculated for each compound and the results are the means of 2 experiments in triplicate.

[4] = target: T1, FGFR/FGF2/HSPG ternary complex (Homo sapiens, UniProt P09038); test: Inhibition of FGF2-mediated intercellular adhesion of CHO-K1 and CHO-745flg cells; assay type: cell-based, Chinese hamsters
T1 construct: FGFR-1 made by transfected HSPG-deficient CHO 745/flg cells; HSPGs on fixed CHO-K1 cells
Excerpt: To this end an in-vitro model was designed capable of assessing the interference of the various different heparin derivatives with bFGF binding to its own receptor.
These latter cells were stably transfected with cDNA for green fluorescent protein and for this reason could be observed under the fluorescence microscope with a combination of filters for the detection of green emission. In brief, the technique is based on the possibility that the two types of cells may interact (form stable bonds) only if FGF is added to the two cell types. In fact, in this case, the heparan sulphates of the CHO-745flg cells will bind to FGF, which in turn will bind to the CHO-K1 cells, establishing a bridge. The binding that occurs is detectable as a result of the green fluorescence emitted by the CHO-745flg cells.
CHO-K1 cells were seeded at a density of 90,000 cells/cm^2 in 24-well plates. After 24 hours the cells were fixed in 3% glutaraldehyde in PBS for 2 hours at 4° C. and washed with 0.1 M glycine/PBS. On the fixed monolayers CHO 745/flg cells, transfected with FGFR-1, at a density of 50,000 cells/cm^2 in DMEM containing 10 mM EDTA, 30 ng/ml FGF-2 and increasing doses of the test compounds. After 2 hours' incubation at 37° C., the adhering cells were counted under the inverted microscope. The results were expressed as percentage of the number of cells adhering compared to those measured in the absence of the test compounds.

[5] = Evaluation of heparin toxicity in Balb/c mice; assay type: in vivo; conditions: q2dx5
Procedure: 20 6-week-old female Balb/c mice weighing 20 g (Harlan), divided into groups by casual randomisation, were treated with heparin sodium, as a reference, and with the compound according to the present invention called ST1514. The treatment schedule was of the q2dx5 type, i.e. 5 total administrations at intervals of 2 days, administering 200 μl/mouse of 50 mg/kg/10 ml and 25 mg/kg/10 ml solutions subcutaneously.
48 hours after the last administration of the test substances a blood sample is taken for full blood count and haematological analysis.
Blood sampling: the mice are placed in a hermetically sealed box, into which is insufflated CO2 in an amount sufficient to stun the animal. Blood is then taken from the retro-orbital plexus of each animal (approximately 1 ml of blood/mouse) which is distributed in amounts of 0.4 ml of blood/mouse in Eppendorf test tubes containing 20 μl of Vister heparin (5000 U/ml) for carrying out the full blood count and haematological analysis; and the same amount of blood is distributed in other Eppendorf test tubes containing 50 μl of 3.8% sodium citrate in order to perform prothrombin time determinations. After taking the blood sample, each animal is sacrificed by cervical dislocation.
Full blood count: the appliance (Cell Analyzer 580 A, DELCON) is used according to the standard procedure described in the operating manual. The blood sample (25 μl) is taken by the dilutor and brought up to a volume of 10 ml (dil. 1:400) with isotonic solution (PLTA saline, DELCON). From this solution (called solution A), the dilutor automatically takes a sample of 100 μl and brings it up to a volume of 10 ml (dil. 1:100), thus obtaining solution B. To solution A are added 3 drops of Emosol (DELCON) for lysis of the red blood cells. This solution is used for the WBC reading. Solution B, on the other hand, is used for the RBC and platelet (PLT) readings. Each sample is read in duplicate.
None of the study treatment groups presents significant differences in the numbers of white blood cells as compared to the control group.

[6] = 50 mg/kg and 25 mg/kg subcutaneously

T1 sequence (P09038 143-288, one chain of several): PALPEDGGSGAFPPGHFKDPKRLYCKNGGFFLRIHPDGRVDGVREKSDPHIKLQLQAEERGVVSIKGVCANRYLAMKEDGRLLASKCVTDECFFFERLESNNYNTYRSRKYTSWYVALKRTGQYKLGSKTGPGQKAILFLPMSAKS

2-O-desulfated heparin
antiangiogenic activity relative to heparin (in words) (CAM): partly maintained the antiangiogenic activity of heparin

FGF-2: basic fibroblast growth factor, positive control with potent angiogenic activity on the CAM
N. vessels at sponge/CAM interface ([1]; 1 μg/embryo, positive control, macroscopic quantitative evaluation (Brooks)): 50 + 4

Heparin
Incorporation of 3H-thymidine (% vs. control) ([2]; FGF-2 15 ng/ml): 50 % vs. control
Incorporation of 3H-thymidine (% vs. control) ([2]; FGF-2 30 ng/ml): 74 % vs. control
Inhibition (ID50) of cell proliferation (BAEC cells): 100 µg/mL
% inhibition (antimetastatic activity) [3]: 97%
Cell Prolif. (ID50, ng/mL) (Endothelial Cell): 2 000 ng/mL
Inhibition (ID50) of cell proliferation (foetal BAEC GM 7373): 2 µg/mL
Inhibition (ID50) of intercellular adhesion ([4]; 30 ng/ml FGF-2, 2 hours at 37° C., 6 concentrations 1 ng/ml to 100 μg/ml): 100
Cell-Cell Adh. (ID50, ng/mL) ([4]; Table 11, FGF2-mediated cell-cell adhesion): 100 ng/mL
ID50, FGF2-mediated cell-cell adhesion test ([4]; text b166): 0.1 µg/mL
CAM (% inhibition) ([1]; 100 μg/embryo): 0%
angiostatic activity on CAM (in words) ([1]; remark below Tables 9 and 10): no activity

heparin sodium
platelets compared to the control group ([5]; 25 mg/kg subcutaneously): significant platelet deficiency
haematoma at the inoculum site [5, 6]: marked haematoma at the inoculum site
liver at autopsy [5, 6]: livers with abnormal characteristics
red blood cells compared to the control group ([5]; 50 mg/kg and 25 mg/kg subcutaneously, 48 hours after last administration): reduction in red blood cells
